# Source: patent US10537552B2, “Substituted 5-hydroxyoxindoles and their use as analgesics and fever reducers” (CARAFE DRUG INNOVATION, LLC, priority 2015, dated 2020)
# Tests used:
# [1] = test system: acetic acid-induced writhing responses; assay: acetic acid writhing test (abdominal irritant test), Example 10; assay type: in vivo, C57/B16 mice
# Procedure: This example compares the antinociception (animal equivalent of analgesia) produced by the oral administration of 5-hydroxy-7-methyloxindole vs. acetaminophen. Initial studies were performed using 10% DMSO/Cremophor™ as the vehicle. To enable a comparison with other datasets, 5-hydroxy-7-methyloxindole was subsequently tested using 6% Tween 20® reagent as the vehicle.
# Male C57/B16 mice (Taconic), 8 weeks of age, were used in this study. The mice were received at Drexel University at least one week prior to testing and housed in standard polycarbonate cages with filter tops. Experiments were done in accordance with the guidelines of the National Institutes of Health and with the guidelines of the Committee for Research and Ethical Issues of IASP and were approved by the Animal Care and Use Committee of Drexel University College of Medicine. Four to five animals were housed per cage and food and water were provided ad libitum. Prior to initiation of the study, the animals were examined to assure adequate health and suitability. Mice were maintained on a 12/12 light/dark cycle and room temperature was maintained between 20 and 23° C. with a relative humidity maintained between 30% and 70%.
# Compounds were administered orally 10 mL/kg, with a 30 minute pretreatment time. All compounds were tested in naïve animals. […] Each compound was dissolved in DMSO as a stock solution and mixed with Cremophor™ (1:1 v/v) before testing. The mixed solutions were diluted 1:4 with sterile water (the final concentration of DMSO/Cremophor™ reagent was 10%) immediately before administration to maximize the amount of compound in solution and improve the uniformity of any compound substance remaining in suspension. It is possible that some of the drug was in suspension at the time of administration. Each compound was initially tested in 5 mice at a dose of 300 mg/kg in the writhing test to assess their ability to alleviate abdominal pain. Based on the results of the initial test, the dose-response relationship for each active compound was determined by measuring the level of analgesia produced by at least 3 escalating doses of the test compound. The measurement of inhibition of writhing for acetaminophen and 5-hydroxy-7-methyloxindole were repeated using 6% Tween® 20 reagent as the vehicle. In this case, both compounds were clearly in suspension when administered to the animals.
# A modified version of the standard abdominal irritant test was used to assess analgesia. Mice were habituated for 1 h in a transparent test box (5×5×10 inches) before any injections. Vehicle or test compound was administered p.o. (per os) 30 min prior to an intraperitoneal (i.p.) injection of 0.6% acetic acid (10 mL/kg) and the number of writhing responses (stretching of the hind limbs accompanied by a contraction of the abdominal muscles) to the acetic acid injection were counted over the subsequent 30 min period. The mice from each cage were randomly assigned to the dosing groups and the mice from each group were injected in a random order.
# The one-way ANOVA was used to determine significant difference from the vehicle control treated animal. Dose response data for 5-hydroxy-7-methyloxindole was fit by non-linear regression analysis to a logit model to provide an estimate of ED50.
# opioid receptor = opioid receptor binding assay, non-selective, [3H]-naloxone; parameters: species or system rat
# Procedure: The non-selective assay was performed according to the procedure described in Childers, European Journal of Pharmacology, 55:11-18, 1979, which is incorporated by reference. In summary, adult Male Sprague-Dawley rats were killed by decapitation and the brains rapidly removed and placed in ice-cold buffer. The cerebral cortex was dissected and homogenized in buffer and the homogenates were further centrifuged. The binding experiments were performed at 25° C. for 40 min. Reaction mixtures contained tissue suspension, unlabeled drug and [^3H]-naloxone (1 nM) radioligand.
# An inhibition greater than about 50% represented significant effects of the test compound. An inhibition of about 25% to about 50% was indicative of weak to moderate effects. An inhibition less than about 25% are not considered significant and may be primarily attributable to variability of the signal around the control level.
structure (smiles),measurement,setting,value
"Cc1cc(O)cc2c1NC(=O)C2 [5-hydroxy-7-methyloxindole, 5-Hydroxy-7-methyloxindole]",inhibition of acetic acid-induced response (writhing),"[1]; C57/B16 mice, p.o. 30 min before i.p. 0.6% acetic acid, 10% DMSO/Cremophor vehicle, 30 to 300 mg/kg, FIG. 2, 3",robust and dose-related inhibition
same,inhibition of acetic acid-induced response (writhing),"[1]; C57/B16 mice, p.o., 6% Tween 20 vehicle (suspension), 100 and 300 mg/kg, FIG. 5, 6",the highest dose produced an effect comparable to that observed with the DMSO/Cremophor™ vehicle
same,ED50,"[1]; Mus musculus, po, C57/B16 mice, p.o., 10% DMSO/Cremophor vehicle, FIG. 4, read-out: ED50 (logit model fit of dose-response)",76 mg/kg
same,oral antinociceptive (analgesic) effect compared with acetaminophen,"[1]; mouse model, oral, summary statement","equal to, and was slightly more potent than, acetaminophen"
same,"binding to opioid receptor, in words",opioid receptor,"binds minimally, if at all"
same,Mean Inhibition (%),"opioid receptor; test concentration 1 × 10^−5 M, rat cerebral cortex, [3H]-naloxone 1 nM",−9.7%
